From ChEMBL document CHEMBL1154629, “Design, synthesis and biological evaluation of novel thiazole derivatives as potent FabH inhibitors” (Bioorg Med Chem Lett, 2009)
≈ marks a conversion by molar mass, not a printed value.

What was measured:
[1] = tested on: Enterobacter cloacae; assay: Antimicrobial activity Enterobacter cloacae ATCC 13047 by MTT assay; assay type: functional
[2] = tested on: Staphylococcus aureus; assay: Antimicrobial activity Staphylococcus aureus ATCC 6538 by MTT assay; assay type: functional
[3] = tested on: Enterococcus faecalis; assay: Antimicrobial activity Streptococcus faecalis ATCC 9790 by MTT assay; assay type: functional
[4] = tested on: Pseudomonas aeruginosa; assay: Antimicrobial activity Pseudomonas aeruginosa ATCC 13525 by MTT assay
[5] = tested on: Bacillus subtilis; assay: Antimicrobial activity Bacillus subtilis ATCC 6633 by MTT assay; assay type: functional
[6] = tested on: Escherichia coli; assay: Antimicrobial activity Escherichia coli ATCC 35218 by MTT assay
[7] = Toxicity in erythrocytes assessed as hemolysis; assay type: cell-based; details: erythrocyte
[8] = molecular target: T1, 3-oxoacyl-[acyl-carrier-protein] synthase 3 (Escherichia coli, UniProt C3TDZ2); assay: Inhibition of Escherichia coli FabH
T1 sequence (C3TDZ2 whole entry): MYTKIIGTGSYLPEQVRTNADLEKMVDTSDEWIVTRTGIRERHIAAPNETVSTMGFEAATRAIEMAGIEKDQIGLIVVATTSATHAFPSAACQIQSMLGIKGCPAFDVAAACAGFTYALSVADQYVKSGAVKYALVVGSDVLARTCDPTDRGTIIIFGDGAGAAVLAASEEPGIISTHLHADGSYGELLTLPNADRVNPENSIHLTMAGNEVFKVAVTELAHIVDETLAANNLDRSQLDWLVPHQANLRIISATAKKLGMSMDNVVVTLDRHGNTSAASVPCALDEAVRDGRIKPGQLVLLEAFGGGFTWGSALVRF

SMILES | MIC [1] [µg/mL] | MIC [2] [µg/mL] | MIC [3] [µg/mL] | MIC [4] [µg/mL] | MIC [5] [µg/mL] | MIC [6] [µg/mL] | LC30 [7] [µg/mL] | IC50 [8] [µM]
Clc1ccc(/C=N/Nc2nc(-c3ccccc3)cs2)cc1 | 25 (≈ 79.7 µM) | 25 (≈ 79.7 µM) | 25 (≈ 79.7 µM) | 25 (≈ 79.7 µM) | 25 (≈ 79.7 µM) |  |  | 
Cc1ccc(/C=N/Nc2nc(-c3ccc(Cl)cc3)cs2)cc1 | 6.25 (≈ 19.1 µM) | 25 (≈ 76.3 µM) | 12.5 (≈ 38.1 µM) | 25 (≈ 76.3 µM) | 6.25 (≈ 19.1 µM) |  |  | 
Fc1ccc(/C=N/Nc2nc(-c3ccc(Cl)cc3)cs2)cc1 | 25 (≈ 75.3 µM) | 6.25 (≈ 18.8 µM) | 12.5 (≈ 37.7 µM) | 25 (≈ 75.3 µM) | 12.5 (≈ 37.7 µM) |  |  | 
Fc1ccc(/C=N/Nc2nc(-c3ccccc3)cs2)cc1 | > 50 | 6.25 (≈ 21 µM) | > 50 | 12.5 (≈ 42 µM) | 12.5 (≈ 42 µM) |  |  | 
COc1ccc(/C=N/Nc2nc(-c3ccc(Cl)cc3)cs2)cc1 | > 50 | 25 (≈ 72.7 µM) | > 50 | 25 (≈ 72.7 µM) | 12.5 (≈ 36.4 µM) |  |  | 
COc1ccc(/C=N/Nc2nc(-c3ccccc3)cs2)cc1 | > 50 | > 50 | > 50 | > 50 | 25 (≈ 80.8 µM) |  |  | 
Cc1ccc(/C=N/Nc2nc(-c3ccc(Cl)c(Cl)c3)cs2)cc1 | 12.5 (≈ 34.5 µM) | 25 (≈ 69 µM) | > 50 | 25 (≈ 69 µM) | > 50 | 25 (≈ 69 µM) |  | 
Clc1ccc(-c2csc(N/N=C/c3ccc(Br)cc3)n2)cc1 | 12.5 (≈ 31.8 µM) | 12.5 (≈ 31.8 µM) | 25 (≈ 63.7 µM) | > 50 | 12.5 (≈ 31.8 µM) |  |  | 
Oc1ccc(Br)cc1/C=N/Nc1nc(-c2ccccc2)cs1 | 25 (≈ 66.8 µM) | 25 (≈ 66.8 µM) | 12.5 (≈ 33.4 µM) | 25 (≈ 66.8 µM) | 12.5 (≈ 33.4 µM) |  |  | 
Clc1ccc(-c2csc(N/N=C/c3ccc(Br)cc3)n2)cc1Cl | > 50 | 3.12 (≈ 7.32 µM) | 25 (≈ 58.5 µM) | 12.5 (≈ 29.3 µM) | 6.25 (≈ 14.6 µM) | 12.5 (≈ 29.3 µM) |  | 
Clc1ccc(/C=N/Nc2nc(-c3ccc(Cl)cc3)cs2)cc1 | > 50 | 12.5 (≈ 35.9 µM) | > 50 | 6.25 (≈ 17.9 µM) | > 50 |  |  | 
Oc1c(Br)cc(Br)cc1/C=N/Nc1nc(-c2ccccc2)cs1 | 25 (≈ 55.2 µM) | > 50 | 25 (≈ 55.2 µM) | 25 (≈ 55.2 µM) | 12.5 (≈ 27.6 µM) | 25 (≈ 55.2 µM) |  | 
Oc1c(Br)cc(Br)cc1/C=N/Nc1nc(-c2ccc(Cl)cc2)cs1 | 6.25 (≈ 12.8 µM) | 25 (≈ 51.3 µM) | > 50 | 25 (≈ 51.3 µM) | > 50 |  | > 10000 | 78.4
Oc1c(Cl)cc(Cl)cc1/C=N/Nc1nc(-c2ccccc2)cs1 | 12.5 (≈ 34.3 µM) | > 50 | 25 (≈ 68.6 µM) | > 50 | 25 (≈ 68.6 µM) |  |  | 
COc1ccc(/C=N/Nc2nc(-c3ccc(Cl)c(Cl)c3)cs2)cc1 | 6.25 (≈ 16.5 µM) | 25 (≈ 66.1 µM) | > 50 | 25 (≈ 66.1 µM) | 25 (≈ 66.1 µM) |  |  | 
Oc1c(Br)cc(Br)cc1/C=N/Nc1nc(-c2ccc(Cl)c(Cl)c2)cs1 | 3.12 (≈ 5.99 µM) | 6.25 (≈ 12 µM) | 6.25 (≈ 12 µM) | 3.12 (≈ 5.99 µM) | 3.12 (≈ 5.99 µM) |  | > 10000 | 3.6
Oc1ccc(Cl)cc1/C=N/Nc1nc(-c2ccc(Cl)c(Cl)c2)cs1 | > 50 | 12.5 (≈ 31.4 µM) | 12.5 (≈ 31.4 µM) | 12.5 (≈ 31.4 µM) | > 50 |  | > 10000 | 39.6
Cc1ccc(/C=N/Nc2nc(-c3ccccc3)cs2)cc1 | > 50 | 25 (≈ 85.2 µM) | > 50 | 25 (≈ 85.2 µM) | > 50 |  |  | 
Oc1c(Cl)cc(Cl)cc1/C=N/Nc1nc(-c2ccc(Cl)cc2)cs1 | > 50 | > 50 | 12.5 (≈ 31.4 µM) | 6.25 (≈ 15.7 µM) | > 50 | 6.25 (≈ 15.7 µM) | > 10000 | 57.6
Oc1ccc(Cl)cc1/C=N/Nc1nc(-c2ccc(Cl)cc2)cs1 | 12.5 (≈ 34.3 µM) | 12.5 (≈ 34.3 µM) | 25 (≈ 68.6 µM) | 12.5 (≈ 34.3 µM) | 6.25 (≈ 17.2 µM) |  | > 10000 | 11.7
Oc1ccc(Br)cc1/C=N/Nc1nc(-c2ccc(Cl)cc2)cs1 | 6.25 (≈ 15.3 µM) | 6.25 (≈ 15.3 µM) | 12.5 (≈ 30.6 µM) | 6.25 (≈ 15.3 µM) | 25 (≈ 61.2 µM) |  | > 10000 | 6.8
Brc1ccc(/C=N/Nc2nc(-c3ccccc3)cs2)cc1 | 25 (≈ 69.8 µM) | 12.5 (≈ 34.9 µM) | 1.56 (≈ 4.36 µM) | 12.5 (≈ 34.9 µM) | > 50 |  |  | 
Oc1ccc(Br)cc1/C=N/Nc1nc(-c2ccc(Cl)c(Cl)c2)cs1 | 12.5 (≈ 28.2 µM) | 25 (≈ 56.4 µM) | > 50 | 12.5 (≈ 28.2 µM) | 12.5 (≈ 28.2 µM) |  | > 10000 | 43.4
Fc1ccc(/C=N/Nc2nc(-c3ccc(Cl)c(Cl)c3)cs2)cc1 | 25 (≈ 68.3 µM) | 0.78 (≈ 2.13 µM) | 6.25 (≈ 17.1 µM) | 25 (≈ 68.3 µM) | 6.25 (≈ 17.1 µM) | 25 (≈ 68.3 µM) |  | 
NC[C@H]1O[C@H](O[C@H]2[C@H](O)[C@@H](O[C@H]3O[C@H](CO)[C@@H](O)[C@H](N)[C@H]3O)[C@H](N)C[C@@H]2N)[C@H](N)[C@@H](O)[C@@H]1O [BEKANAMYCIN] | 1.56 (≈ 3.23 µM) | 1.56 (≈ 3.23 µM) | 3.12 (≈ 6.46 µM) | 3.12 (≈ 6.46 µM) | 0.39 (≈ 0.807 µM) | 3.12 (≈ 6.46 µM) |  | 
CC1(C)S[C@@H]2[C@H](NC(=O)Cc3ccccc3)C(=O)N2[C@H]1C(=O)O [PENICILLIN G] | 3.12 (≈ 9.35 µM) | 1.56 (≈ 4.67 µM) | 1.56 (≈ 4.67 µM) | 6.25 (≈ 18.7 µM) | 1.56 (≈ 4.67 µM) | 6.25 (≈ 18.7 µM) |  | 
Clc1ccc(/C=N/Nc2nc(-c3ccc(Cl)c(Cl)c3)cs2)cc1 | 25 (≈ 65.3 µM) | 1.56 (≈ 4.08 µM) | 25 (≈ 65.3 µM) | 12.5 (≈ 32.7 µM) | 12.5 (≈ 32.7 µM) | 12.5 (≈ 32.7 µM) |  | 
Oc1c(Cl)cc(Cl)cc1/C=N/Nc1nc(-c2ccc(Cl)c(Cl)c2)cs1 | 12.5 (≈ 28.9 µM) | 6.25 (≈ 14.4 µM) | 12.5 (≈ 28.9 µM) | 6.25 (≈ 14.4 µM) | 12.5 (≈ 28.9 µM) |  | > 10000 | 16.5
Oc1ccc(Cl)cc1/C=N/Nc1nc(-c2ccccc2)cs1 | > 50 | > 50 | 25 (≈ 75.8 µM) | 12.5 (≈ 37.9 µM) | > 50 | 12.5 (≈ 37.9 µM) |  | 
